Assay results from patent US20260207578A1, “COMPOUND BASED ON SULFUR/OXYGEN SUBSTITUTED GLUTARIMIDE-BASED ISOINDOLINONE SKELETON AND USE THEREOF” (Gluetacs Therapeutics (Shanghai) Co., LTD., priority 2022, published 2026).

Legend:
MV-4-11 = assay: Half inhibitory concentration (IC50) against tumor cells, Cell Counting Kit-8; format: cell-based; details: Homo sapiens, MV4-11, CCK-8, 96 h treatment, read-out: inhibitory activity (IC50, nM) against tumor cells proliferation
Protocol: The tumor cells used herein were cultured in a cell culture medium listed in table A at 37° C. in an incubator with 5% CO2.
After the cells were treated with the compounds of the present disclosure for a period of time, the cell viability detection reagent was added to the culture medium for cell viability assessment according to the instructions provided with the CCK-8 kit. […] The growth inhibition of the compounds of the present disclosure on cells was plotted by Prism Graphpad software, and the IC50 values of the compounds of the present disclosure were calculated therefrom.

CK1α = target: T1, CK1α (Homo sapiens, UniProt P48729+Q96SW2); assay: Western-blot assay, substrate protein in hPBMCs; format: cell-based; details: hPBMC cells, 24 hours, tested at 50 nM and 500 nM, table does not say which
T1 construct: endogenous in cells; host or cells: human PBMCs (Milecell Biotechnologies)
Procedure, shortened: (§1)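 Cellular protein levels after a 24 h degrader treatment of human PBMCs were assessed by Western blot densitometry relative to an internal control. Results are expressed as % remaining, % degraded, or DC50 versus DMSO-treated cells.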

GSPT1 = target: T2, GSPT1 (Homo sapiens, UniProt P15170+Q96SW2); assay: Western-blot assay, substrate protein in hPBMCs; format: cell-based; details: hPBMC cells, 24 hours, tested at 50 nM and 500 nM, table does not say which
T2 construct: endogenous in cells; host or cells: human PBMCs (Milecell Biotechnologies)
Procedure, shortened: as §1

Wee1 = target: T3, Wee1 (Homo sapiens, UniProt P30291+Q96SW2); assay: Western-blot assay, substrate protein in hPBMCs; format: cell-based; details: hPBMC cells, 24 hours, tested at 50 nM and 500 nM, table does not say which
T3 construct: endogenous in cells; host or cells: human PBMCs (Milecell Biotechnologies)
Procedure, shortened: as §1

[1] = target: T4, human Cereblon WT GST-tagged protein (Homo sapiens, UniProt Q96SW2); assay: CRBN-binding affinity, HTRF (CEREBLON BINDING kit); details: displacement of Thalidomide-Re reagent, 3 hours at room temperature
T4 construct: purchased CISBIO 64BDCRBNPEH
Procedure, shortened: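 Compounds displace a thalidomide-Re tracer from GST-tagged human Cereblon WT, detected with an Eu-labelled anti-GST antibody by time-resolved fluorescence. Signal at 620 nm was normalised against solvent and blank controls.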

IKZF1 = target: T5, IKZF1 (Homo sapiens, UniProt Q13422+Q96SW2); assay: Western-blot assay, substrate protein in hPBMCs; format: cell-based; details: hPBMC cells, 24 hours, tested at 50 nM and 500 nM, table does not say which
T5 construct: endogenous in cells; host or cells: human PBMCs (Milecell Biotechnologies)
Procedure, shortened: (§2)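 hPBMCs (1×10^6 cells/mL) exposed 24 h to compound at 50 nM and 500 nM, lysed, and probed by Western blot. Band grayscale normalized to internal control gives % protein remaining versus DMSO; DC50 from concentration-response fit at half DMSO band intensity.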

IKZF2 = target: T6, IKZF2 (Homo sapiens, UniProt Q96SW2+Q9UKS7); assay: Western-blot assay, substrate protein in hPBMCs; format: cell-based; details: hPBMC cells, 24 hours, tested at 50 nM and 500 nM, table does not say which
T6 construct: endogenous in cells; host or cells: human PBMCs (Milecell Biotechnologies)
Procedure, shortened: as §1

IKZF3 = target: T7, IKZF3 (Homo sapiens, UniProt Q96SW2+Q9UKT9); assay: Western-blot assay, substrate protein in hPBMCs; format: cell-based; details: hPBMC cells, 24 hours, tested at 50 nM and 500 nM, table does not say which
T7 construct: endogenous in cells; host or cells: human PBMCs (Milecell Biotechnologies)
Procedure, shortened: as §2

T7 sequence (Q9UKT9 whole entry): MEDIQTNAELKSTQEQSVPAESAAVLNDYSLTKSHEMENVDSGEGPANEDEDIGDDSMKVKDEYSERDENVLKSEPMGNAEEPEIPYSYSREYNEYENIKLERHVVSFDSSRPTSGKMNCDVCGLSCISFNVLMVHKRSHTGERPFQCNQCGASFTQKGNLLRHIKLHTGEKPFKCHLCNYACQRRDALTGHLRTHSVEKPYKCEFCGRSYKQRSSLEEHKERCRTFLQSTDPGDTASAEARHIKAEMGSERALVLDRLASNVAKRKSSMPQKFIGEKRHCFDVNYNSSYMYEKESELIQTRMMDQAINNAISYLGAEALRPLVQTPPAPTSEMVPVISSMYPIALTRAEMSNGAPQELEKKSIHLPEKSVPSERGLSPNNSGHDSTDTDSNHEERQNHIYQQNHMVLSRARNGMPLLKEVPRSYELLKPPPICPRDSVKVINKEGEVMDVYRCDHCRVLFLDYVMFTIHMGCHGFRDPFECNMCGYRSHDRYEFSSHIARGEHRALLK
T7 sequence (Q96SW2 whole entry): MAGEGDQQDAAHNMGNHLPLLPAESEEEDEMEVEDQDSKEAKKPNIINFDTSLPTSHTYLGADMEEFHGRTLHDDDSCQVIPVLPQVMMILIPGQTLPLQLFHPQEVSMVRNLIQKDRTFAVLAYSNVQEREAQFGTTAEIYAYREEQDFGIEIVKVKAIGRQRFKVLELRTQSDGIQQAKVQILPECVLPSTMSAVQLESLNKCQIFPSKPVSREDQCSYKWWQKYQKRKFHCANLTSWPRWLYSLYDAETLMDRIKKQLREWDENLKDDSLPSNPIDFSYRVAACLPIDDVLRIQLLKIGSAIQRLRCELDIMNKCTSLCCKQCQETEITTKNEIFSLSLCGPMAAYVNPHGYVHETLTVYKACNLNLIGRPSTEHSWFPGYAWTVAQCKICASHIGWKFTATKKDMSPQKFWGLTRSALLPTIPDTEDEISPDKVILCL
T7 sequence (Q16531 whole entry partner): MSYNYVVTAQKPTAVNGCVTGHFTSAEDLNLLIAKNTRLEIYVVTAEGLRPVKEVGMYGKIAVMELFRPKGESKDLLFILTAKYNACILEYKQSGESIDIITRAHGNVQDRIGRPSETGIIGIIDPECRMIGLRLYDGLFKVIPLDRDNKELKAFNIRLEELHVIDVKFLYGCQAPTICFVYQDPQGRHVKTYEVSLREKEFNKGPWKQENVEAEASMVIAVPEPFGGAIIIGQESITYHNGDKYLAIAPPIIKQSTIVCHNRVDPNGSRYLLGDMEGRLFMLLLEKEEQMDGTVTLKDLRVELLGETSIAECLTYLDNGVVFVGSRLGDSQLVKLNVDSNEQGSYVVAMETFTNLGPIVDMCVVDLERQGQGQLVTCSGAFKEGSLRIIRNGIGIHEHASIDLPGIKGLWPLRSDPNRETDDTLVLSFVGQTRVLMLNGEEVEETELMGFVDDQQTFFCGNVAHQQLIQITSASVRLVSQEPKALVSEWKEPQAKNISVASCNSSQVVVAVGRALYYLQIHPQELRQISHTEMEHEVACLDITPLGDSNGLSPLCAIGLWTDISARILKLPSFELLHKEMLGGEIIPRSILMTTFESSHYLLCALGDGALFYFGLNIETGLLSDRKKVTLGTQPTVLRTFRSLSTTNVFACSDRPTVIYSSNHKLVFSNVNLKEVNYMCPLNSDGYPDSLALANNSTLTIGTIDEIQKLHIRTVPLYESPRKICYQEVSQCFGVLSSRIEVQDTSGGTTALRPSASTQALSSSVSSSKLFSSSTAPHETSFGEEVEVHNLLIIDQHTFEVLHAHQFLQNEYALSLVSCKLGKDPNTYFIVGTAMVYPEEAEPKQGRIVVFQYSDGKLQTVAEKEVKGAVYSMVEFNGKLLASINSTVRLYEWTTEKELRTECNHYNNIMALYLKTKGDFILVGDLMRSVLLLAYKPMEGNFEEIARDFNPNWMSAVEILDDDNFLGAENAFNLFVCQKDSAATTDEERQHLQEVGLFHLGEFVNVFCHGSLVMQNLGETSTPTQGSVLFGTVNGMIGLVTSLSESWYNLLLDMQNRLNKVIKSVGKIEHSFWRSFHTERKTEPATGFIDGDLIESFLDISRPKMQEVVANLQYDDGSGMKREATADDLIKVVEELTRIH
T6 sequence (Q9UKS7 whole entry): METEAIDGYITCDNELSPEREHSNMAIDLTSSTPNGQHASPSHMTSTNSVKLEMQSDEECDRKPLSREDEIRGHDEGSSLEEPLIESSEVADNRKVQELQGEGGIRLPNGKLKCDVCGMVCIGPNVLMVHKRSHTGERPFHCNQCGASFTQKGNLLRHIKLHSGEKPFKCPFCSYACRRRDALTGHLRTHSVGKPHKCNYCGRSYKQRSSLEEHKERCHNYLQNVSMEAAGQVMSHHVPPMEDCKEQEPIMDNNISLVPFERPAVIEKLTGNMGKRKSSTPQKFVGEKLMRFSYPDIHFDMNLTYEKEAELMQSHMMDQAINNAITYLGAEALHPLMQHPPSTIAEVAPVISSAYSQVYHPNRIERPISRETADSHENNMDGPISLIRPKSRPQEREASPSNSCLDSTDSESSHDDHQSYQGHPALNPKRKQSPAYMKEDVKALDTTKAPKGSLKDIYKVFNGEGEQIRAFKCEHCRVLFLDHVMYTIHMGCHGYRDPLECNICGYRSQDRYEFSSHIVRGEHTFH
T6 sequence (Q96SW2 whole entry): as the sequence (Q96SW2 whole entry) above
T6 sequence (Q16531 whole entry partner): as the sequence (Q16531 whole entry partner) above
T5 sequence (Q13422 whole entry): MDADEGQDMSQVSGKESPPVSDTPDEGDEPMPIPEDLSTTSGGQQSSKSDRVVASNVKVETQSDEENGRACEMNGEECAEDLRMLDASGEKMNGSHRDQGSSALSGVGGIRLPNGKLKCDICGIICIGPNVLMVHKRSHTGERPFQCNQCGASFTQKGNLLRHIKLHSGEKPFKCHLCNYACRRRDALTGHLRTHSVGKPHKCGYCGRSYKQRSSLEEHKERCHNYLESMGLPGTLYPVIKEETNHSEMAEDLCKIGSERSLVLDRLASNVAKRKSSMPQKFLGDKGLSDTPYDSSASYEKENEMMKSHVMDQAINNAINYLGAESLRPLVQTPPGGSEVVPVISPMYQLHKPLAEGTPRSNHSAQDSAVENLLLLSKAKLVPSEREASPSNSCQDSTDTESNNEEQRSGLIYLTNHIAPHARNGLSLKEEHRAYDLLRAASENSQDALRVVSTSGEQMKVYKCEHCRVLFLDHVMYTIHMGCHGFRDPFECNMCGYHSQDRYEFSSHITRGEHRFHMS
T5 sequence (Q96SW2 whole entry): as the sequence (Q96SW2 whole entry) above
T5 sequence (Q16531 whole entry partner): as the sequence (Q16531 whole entry partner) above
T1 sequence (P48729 whole entry): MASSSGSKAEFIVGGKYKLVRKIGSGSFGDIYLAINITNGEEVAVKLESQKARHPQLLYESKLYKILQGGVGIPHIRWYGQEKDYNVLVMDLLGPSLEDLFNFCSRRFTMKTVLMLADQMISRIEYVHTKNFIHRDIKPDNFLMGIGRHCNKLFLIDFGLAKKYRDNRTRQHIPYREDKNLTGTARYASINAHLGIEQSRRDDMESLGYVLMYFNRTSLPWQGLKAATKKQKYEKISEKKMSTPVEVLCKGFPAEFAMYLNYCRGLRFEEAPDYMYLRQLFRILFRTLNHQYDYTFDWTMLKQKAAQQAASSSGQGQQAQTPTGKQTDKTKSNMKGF
T1 sequence (Q96SW2 whole entry): as the sequence (Q96SW2 whole entry) above
T1 sequence (Q16531 whole entry partner): as the sequence (Q16531 whole entry partner) above
T2 sequence (P15170 whole entry): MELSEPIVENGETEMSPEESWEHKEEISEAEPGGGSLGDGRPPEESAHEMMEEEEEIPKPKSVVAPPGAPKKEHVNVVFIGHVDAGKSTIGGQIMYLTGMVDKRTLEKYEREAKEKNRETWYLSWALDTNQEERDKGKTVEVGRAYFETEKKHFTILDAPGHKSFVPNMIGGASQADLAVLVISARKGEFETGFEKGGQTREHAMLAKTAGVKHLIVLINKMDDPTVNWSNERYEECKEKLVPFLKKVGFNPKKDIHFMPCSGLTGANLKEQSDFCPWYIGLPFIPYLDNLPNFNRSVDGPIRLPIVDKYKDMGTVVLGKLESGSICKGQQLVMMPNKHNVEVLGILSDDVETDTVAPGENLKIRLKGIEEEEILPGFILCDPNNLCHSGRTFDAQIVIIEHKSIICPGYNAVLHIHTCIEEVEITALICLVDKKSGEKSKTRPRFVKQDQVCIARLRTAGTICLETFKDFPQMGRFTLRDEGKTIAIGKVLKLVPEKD
T2 sequence (Q96SW2 whole entry): as the sequence (Q96SW2 whole entry) above
T2 sequence (Q16531 whole entry partner): as the sequence (Q16531 whole entry partner) above
T4 sequence (Q96SW2 whole entry): as the sequence (Q96SW2 whole entry) above

Structure (SMILES)	IC50 (MV-4-11) [nM]	IC50 [1] [nM]	substrate protein remaining % (CK1α)	substrate protein remaining % (GSPT1)	substrate protein remaining % (Wee1)	substrate protein remaining % (IKZF1)	substrate protein remaining % (IKZF2)	substrate protein remaining % (IKZF3)
CC1(C)CCC(CN2CCC(Sc3ccc4c(c3)CN(C3CCC(=O)NC3=O)C4=O)C(F)(F)C2)=C(c2ccc(Cl)cc2)C1 (stereo not shown) [GT-06960, 3-(5-((1-((4′-chloro-5,5-dimethyl-3,4,5,6-tetrahydro-[1,1′-biphenyl]-2-yl)methyl)-3,3-difluoropiperidin-4-yl)thio)-1-oxoisoindolin-2-yl)piperidine-2,6-dione]	500 to 1000		A (0%≤ substrate protein remaining % ≤80%)	A (0%≤ substrate protein remaining % ≤80%)	A (0%≤ substrate protein remaining % ≤80%)			
O=C1CCC(N2Cc3cc(OC4CC5CN(C(c6ccccc6)c6ccccc6)CC5C4)ccc3C2=O)C(=O)N1 (stereo not shown) [GT-06955, 3-(5-((2-benzhydryloctahydro-cyclopenta[c]pyrrol-5-yl)oxy)-1-oxoisoindolin-2-yl)piperidine-2,6-dione]	50 to 100	< 500	A (0%≤ substrate protein remaining % ≤80%)			A (0%≤ substrate protein remaining % ≤80%)	A (0%≤ substrate protein remaining % ≤80%)	
O=C1CCC(N2Cc3cc(OC4CCCN(C(=O)c5ccccc5-c5ccc(Cl)cc5)CC4)ccc3C2=O)C(=O)N1 (stereo not shown) [GT-06935, 3-(5-((1-(4′-chloro-[1,1′-biphenyl]-2-carbonyl)azepan-4-yl)oxy)-1-oxoisoindolin-2-yl)piperidine-2,6-dione]	100 to 500	< 500	A (0%≤ substrate protein remaining % ≤80%)	A (0%≤ substrate protein remaining % ≤80%)	A (0%≤ substrate protein remaining % ≤80%)			
CC1(C)CCC(CN2CCC3(CC2)CC(Sc2ccc4c(c2)CN(C2CCC(=O)NC2=O)C4=O)C3)=C(c2ccc(Cl)cc2)C1 (stereo not shown) [GT-06873, 3-(5-((7-((4′-chloro-5,5-dimethyl-3,4,5,6-tetrahydro-[1,1′-biphenyl]-2-yl)methyl)-7-azaspiro[3.5]nonan-2-yl)thio)-1-oxoisoindolin-2-yl)piperidine-2,6-dione]	10 to 50	1000 to 1900	A (0%≤ substrate protein remaining % ≤80%)	A (0%≤ substrate protein remaining % ≤80%)	A (0%≤ substrate protein remaining % ≤80%)	A (0%≤ substrate protein remaining % ≤80%)	A (0%≤ substrate protein remaining % ≤80%)	A (0%≤ substrate protein remaining % ≤80%)
O=C1CCC(N2Cc3cc(OC4CC5(CCN(C(c6ccccc6)c6ccccc6)CC5)C4)ccc3C2=O)C(=O)N1 (stereo not shown) [GT-06956, 3-(5-((7-benzhydryl-7-azaspiro[3.5]nonan-2-yl)oxy)-1-oxoisoindolin-2-yl)piperidine-2,6-dione]	500 to 1000	< 500	A (0%≤ substrate protein remaining % ≤80%)		A (0%≤ substrate protein remaining % ≤80%)	A (0%≤ substrate protein remaining % ≤80%)	A (0%≤ substrate protein remaining % ≤80%)	A (0%≤ substrate protein remaining % ≤80%)

Further lines, with some results ahead:

IC50 (MV-4-11) [nM]	IC50 [1] [nM]	Structure (SMILES)	substrate protein remaining % (CK1α)	substrate protein remaining % (GSPT1)	substrate protein remaining % (Wee1)	substrate protein remaining % (IKZF1)	substrate protein remaining % (IKZF2)	substrate protein remaining % (IKZF3)
100 to 500	1000 to 1900	CC1(C)CCC(CN2CCC3(CCC(Sc4ccc5c(c4)CN(C4CCC(=O)NC4=O)C5=O)CC3)CC2)=C(c2ccc(Cl)cc2)C1 (stereo not shown) [GT-06874, 3-(5-((3-((4′-chloro-5,5-dimethyl-3,4,5,6-tetrahydro-[1,1′-biphenyl]-2-yl)methyl)-3-azaspiro[5.5]undecan-9-yl)thio)-1-oxoisoindolin-2-yl)piperidine-2,6-dione]	A (0%≤ substrate protein remaining % ≤80%)	A (0%≤ substrate protein remaining % ≤80%)	A (0%≤ substrate protein remaining % ≤80%)		A (0%≤ substrate protein remaining % ≤80%)	A (0%≤ substrate protein remaining % ≤80%)
100 to 500	< 500	O=C1CCC(N2Cc3cc(OC4CCCN(Cc5ccccc5-c5ccc(Cl)cc5)CC4)ccc3C2=O)C(=O)N1 (stereo not shown) [GT-06934, 3-(5-((1-((4′-chloro-[1,1′-biphenyl]-2-yl)methyl)azepan-4-yl)oxy)-1-oxoisoindolin-2-yl)piperidine-2,6-dione]	A (0%≤ substrate protein remaining % ≤80%)		A (0%≤ substrate protein remaining % ≤80%)		A (0%≤ substrate protein remaining % ≤80%)	
500 to 1000	1000 to 1900	CC1(C)CCC(CN2CCC(Oc3ccc4c(c3)CN(C3CCC(=O)NC3=O)C4=O)C2)=C(c2ccc(Cl)cc2)C1 (stereo not shown) [GT-06815, 3-(5-((1-((4′-chloro-5,5-dimethyl-3,4,5,6-tetrahydro-[1,1′-biphenyl]-2-yl)methyl)pyrrolidin-3-yl)oxy)-1-oxoisoindolin-2-yl)piperidine-2,6-dione]	A (0%≤ substrate protein remaining % ≤80%)	A (0%≤ substrate protein remaining % ≤80%)	A (0%≤ substrate protein remaining % ≤80%)	A (0%≤ substrate protein remaining % ≤80%)	A (0%≤ substrate protein remaining % ≤80%)	A (0%≤ substrate protein remaining % ≤80%)
100 to 500	500 to 1000	CC1(C)CCC(C(=O)N2CCC3(CC2)CC(Sc2ccc4c(c2)CN(C2CCC(=O)NC2=O)C4=O)C3)=C(c2ccc(Cl)cc2)C1 (stereo not shown) [GT-06918, 3-(5-((7-(4′-chloro-5,5-dimethyl-3,4,5,6-tetrahydro-[1,1′-biphenyl]-2-carbonyl)-7-azaspiro[3.5]nonan-2-yl)thio)-1-oxoisoindolin-2-yl)piperidine-2,6-dione]			A (0%≤ substrate protein remaining % ≤80%)	A (0%≤ substrate protein remaining % ≤80%)	A (0%≤ substrate protein remaining % ≤80%)	A (0%≤ substrate protein remaining % ≤80%)
10 to 50	500 to 1000	O=C1CCC(N2Cc3cc(OC4CCCN(C(c5ccccc5)c5ccccc5)CC4)ccc3C2=O)C(=O)N1 (stereo not shown) [GT-06928, 3-(5-((1-benzhydrylazepan-4-yl)oxy)-1-oxoisoindolin-2-yl)piperidine-2,6-dione]			A (0%≤ substrate protein remaining % ≤80%)		A (0%≤ substrate protein remaining % ≤80%)	
1 to 10	500 to 1000	O=C1CCC(N2Cc3cc(SC4CCN(C(=O)c5ccccc5-c5ccc(Cl)cc5)CC4(F)F)ccc3C2=O)C(=O)N1 (stereo not shown) [GT-06925, 3-(5-((1-(4′-chloro-[1,1′-biphenyl]-2-carbonyl)-3,3-difluoropiperidin-4-yl)thio)-1-oxoisoindolin-2-yl)piperidine-2,6-dione]	A (0%≤ substrate protein remaining % ≤80%)	A (0%≤ substrate protein remaining % ≤80%)	A (0%≤ substrate protein remaining % ≤80%)	A (0%≤ substrate protein remaining % ≤80%)	A (0%≤ substrate protein remaining % ≤80%)	A (0%≤ substrate protein remaining % ≤80%)
